Assay results: US20260365670A1, “EGFR INHIBITORS AND USES THEREOF” (DIZAL (JIANGSU) PHARMACEUTICAL CO., LTD., priority 2022, published 2026)
Read-outs that look alike come from different tables or passages of the source.

What was measured:
EGFR wild type = target: T1, EGFR wild type (Homo sapiens, UniProt P00533); test: Inhibition of EGFR wild type biochemical enzymatic activity (HTRF); settings: EGFR wild type, 1 mM ATP, 1 h at room temperature, read-out: IC50 @WT
T1 construct: purchased Carna Bio
Protocol: (§1) Biological Example 1: Inhibition of EGFR WT and Mutant Biochemical Enzymatic Activity
(§2) The inhibition potency of compounds against these enzymes was assessed using Homogenous Time Resolved Fluorescence approach (HTRF, CisBio. Cat No. 62TKOPEJ).
(§3) Inhibitory effects of the compounds were determined by measuring the enzymatic activity of EGFR enzyme phosphorylates 1 μM TK Substrate-biotin in the presence of 1 mM adenosine-5′-triphosphate (ATP) and varying concentrations of the test compound. The enzyme reaction buffer contains 5 mM MgCl2, 1 mM MnC12, 0.01% CHAPS, 1 mM dithiothreitol (DTT), 0.5% dimethylsulfoxide (DMSO), and 1× supplemented enzymatic buffer. The WT and mutant EGFR enzymes (SignalChem) were added to plates containing inhibitors, followed by activation of the kinase reaction by addition of ATP and peptide substrates. After incubation for 1 h at room temperature, the reaction was stopped by the addition of the detection reagent mix containing EDTA. The fluorescence was measured at 615 nm and 665 nm, respectively with excitation wavelength at 320 nm. The calculated signal ratio of 665 nm/615 nm is proportional to the kinase activity. The concentration of compound producing 50% inhibition of the respective kinase (IC50) was calculated using four-parameter logistic fit with XL-FIT.

EGFR L858R = target: T2, EGFR L858R (Homo sapiens, UniProt P00533, L858R); test: Inhibition of EGFR L858R biochemical enzymatic activity (HTRF); settings: 1 mM ATP, 1 h at room temperature, read-out: IC50 @L858R
T2 construct: purchased Carna Bio
Protocol: as §1, §2, §3

EGFR L858R/T790M = target: T3, EGFR L858R/T790M (Homo sapiens, UniProt P00533, L858R/T790M); test: Inhibition of EGFR L858R/T790M biochemical enzymatic activity (HTRF); settings: EGFR L858R/T790M, 1 mM ATP, 1 h at room temperature, read-out: IC50 @L858R-T790M
T3 construct: purchased Carna Bio
Protocol: as §1, §2, §3

EGFR Exon19Del = target: T4, EGFR Exon19Del (Homo sapiens, UniProt P00533, DEL746-750); test: Inhibition of EGFR Exon19Del biochemical enzymatic activity (HTRF); settings: EGFR Exon19Del, 1 mM ATP, 1 h at room temperature, read-out: IC50 @Del19
T4 construct: purchased Carna Bio
Protocol: as §1, §2, §3

EGFR Exon19Del/T790M = target: T5, EGFR Exon19Del/T790M (Homo sapiens, UniProt P00533, DEL746-750/T790M); test: Inhibition of EGFR Exon19Del/T790M biochemical enzymatic activity (HTRF); settings: EGFR Exon19Del/T790M, 1 mM ATP, 1 h at room temperature, read-out: IC50 @Del19-T790M
T5 construct: purchased Carna Bio
Protocol: as §1, §2, §3

EGFR[T790M/C797S/L858R] = target: T6, EGFR[T790M/C797S/L858R] (Homo sapiens, UniProt P00533, C797S/L858R/T790M); test: Inhibition of EGFR[T790M/C797S/L858R] biochemical enzymatic activity (HTRF); settings: EGFR[T790M/C797S/L858R], 1 mM ATP, 1 h at room temperature, read-out: IC50 @T790M- C797S - L858R
T6 construct: purchased Carna Bio
Protocol: as §1, §2, §3

[1] = target: T7, EGFR[T790M/C797S/d746-750] (Homo sapiens, UniProt P00533, C797S/DEL746-750/T790M); test: Inhibition of EGFR[T790M/C797S/d746-750] biochemical enzymatic activity (HTRF); settings: EGFR[T790M/C797S/d746-750], 1 mM ATP, 1 h at room temperature, read-out: IC50 @T790M - C797S - Del19
T7 construct: purchased Carna Bio
Protocol: as §1, §2, §3

EGFR (d746-750 C797S) = target: T8, EGFR (d746-750 C797S) (Homo sapiens, UniProt P00533, C797S/DEL746-750); test: Inhibition of EGFR (d746-750 C797S) biochemical enzymatic activity (HTRF); settings: EGFR (d746-750 C797S), 1 mM ATP, 1 h at room temperature, read-out: IC50 @Del19-C797S
T8 construct: purchased signalchem
Protocol: as §1, §2, §3

EGFR (C797S L858R) = target: T9, EGFR (C797S L858R) (Homo sapiens, UniProt P00533, C797S/L858R); test: Inhibition of EGFR (C797S L858R) biochemical enzymatic activity (HTRF); settings: EGFR (C797S L858R), 1 mM ATP, 1 h at room temperature, read-out: IC50 @L858-C797S
T9 construct: purchased signalchem
Protocol: as §1, §2, §3

[2] = system: Ba/F3 cells expressing EGFR mutations; test: Cell proliferation assay, Ba/F3 cells expressing EGFR mutations (CellTiter-Glo, 72 hours); format: cell-based
Protocol: (§4) Biological Example 2: Cell Proliferation Assays
(§5) Ba/F3 cells expressing EGFR mutations were seeded in 384-well plates at 5000 cells/well in RPMI1640 medium containing […]. PC-9 at 500 cells/well was seeded into 384-well plates in RPMI1640 medium with 10% FBS. After overnight incubation, the assay plates were dosed with compounds at a series of concentrations. Alongside dosing the assay plates, the day 0 plate was processed using CellTiter-Glo® Luminescent Cell Viability Assay (Promega) to measure the number of viable cells (G0). The assay plates were further incubated for 72 hours and the number of viable cells (G3) was measured. The percentage of proliferation was calculated as: […]=100×(G3 value of sample well−G0 value)/(G3 value of DMSO control−G0 value). The concentration of compound producing 50% proliferation inhibition (GI50) was further calculated in best-fit curves using XLFit software. N/A=not available.

PC-9 = test: Cell proliferation assay, PC-9 cells (CellTiter-Glo, 72 hours); format: cell-based; settings: PC9 cells, read-out: GI50 PC9
Protocol: as §4, §5

T8 sequence (P00533 with tags, fused parts or gaps DEL746-750/C797S limits assumed): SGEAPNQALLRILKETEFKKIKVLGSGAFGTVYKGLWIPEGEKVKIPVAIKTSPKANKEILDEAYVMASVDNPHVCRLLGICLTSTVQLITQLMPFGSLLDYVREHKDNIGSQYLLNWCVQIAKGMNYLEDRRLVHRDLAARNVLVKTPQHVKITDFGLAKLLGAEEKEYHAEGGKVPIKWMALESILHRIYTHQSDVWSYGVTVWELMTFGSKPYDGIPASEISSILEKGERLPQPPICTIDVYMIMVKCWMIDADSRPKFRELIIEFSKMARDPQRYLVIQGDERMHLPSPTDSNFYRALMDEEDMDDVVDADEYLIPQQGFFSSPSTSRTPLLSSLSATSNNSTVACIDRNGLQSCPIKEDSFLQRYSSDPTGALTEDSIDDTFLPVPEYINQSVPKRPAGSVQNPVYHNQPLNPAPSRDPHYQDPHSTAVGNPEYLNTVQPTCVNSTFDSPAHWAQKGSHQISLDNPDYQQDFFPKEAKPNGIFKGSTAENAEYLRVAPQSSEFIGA
T9 sequence (P00533 25-1210 C797S/L858R): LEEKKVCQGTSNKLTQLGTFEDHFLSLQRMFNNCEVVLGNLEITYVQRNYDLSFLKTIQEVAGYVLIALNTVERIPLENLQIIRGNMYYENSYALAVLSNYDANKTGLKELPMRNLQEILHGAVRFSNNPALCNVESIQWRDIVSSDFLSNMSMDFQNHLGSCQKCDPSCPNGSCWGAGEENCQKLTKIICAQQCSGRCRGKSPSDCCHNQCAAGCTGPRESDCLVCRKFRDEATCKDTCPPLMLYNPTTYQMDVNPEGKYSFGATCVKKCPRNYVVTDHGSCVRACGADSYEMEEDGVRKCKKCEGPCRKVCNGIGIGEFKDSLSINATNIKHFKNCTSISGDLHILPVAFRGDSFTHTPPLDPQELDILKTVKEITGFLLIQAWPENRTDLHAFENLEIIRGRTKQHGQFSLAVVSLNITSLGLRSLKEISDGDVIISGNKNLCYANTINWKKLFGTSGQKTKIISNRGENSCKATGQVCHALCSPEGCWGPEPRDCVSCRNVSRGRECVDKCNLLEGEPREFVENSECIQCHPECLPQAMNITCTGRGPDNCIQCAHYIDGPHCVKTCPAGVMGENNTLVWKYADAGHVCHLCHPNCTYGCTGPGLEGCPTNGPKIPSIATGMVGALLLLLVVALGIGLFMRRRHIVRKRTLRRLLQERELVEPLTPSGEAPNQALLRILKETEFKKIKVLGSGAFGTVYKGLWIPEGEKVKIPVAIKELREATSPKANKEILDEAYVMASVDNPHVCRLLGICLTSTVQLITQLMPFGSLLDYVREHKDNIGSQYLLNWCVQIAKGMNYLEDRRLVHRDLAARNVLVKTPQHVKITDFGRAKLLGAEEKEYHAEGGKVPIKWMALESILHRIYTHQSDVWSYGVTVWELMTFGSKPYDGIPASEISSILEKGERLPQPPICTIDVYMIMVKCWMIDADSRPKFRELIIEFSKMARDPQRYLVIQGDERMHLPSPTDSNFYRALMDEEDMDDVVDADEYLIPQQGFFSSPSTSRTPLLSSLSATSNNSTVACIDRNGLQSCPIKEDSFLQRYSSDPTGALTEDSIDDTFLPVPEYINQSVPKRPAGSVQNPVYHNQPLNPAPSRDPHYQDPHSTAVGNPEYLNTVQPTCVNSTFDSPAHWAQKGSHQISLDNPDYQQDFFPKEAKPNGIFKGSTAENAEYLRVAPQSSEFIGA
T4 sequence (P00533 with tags, fused parts or gaps DEL746-750 limits assumed): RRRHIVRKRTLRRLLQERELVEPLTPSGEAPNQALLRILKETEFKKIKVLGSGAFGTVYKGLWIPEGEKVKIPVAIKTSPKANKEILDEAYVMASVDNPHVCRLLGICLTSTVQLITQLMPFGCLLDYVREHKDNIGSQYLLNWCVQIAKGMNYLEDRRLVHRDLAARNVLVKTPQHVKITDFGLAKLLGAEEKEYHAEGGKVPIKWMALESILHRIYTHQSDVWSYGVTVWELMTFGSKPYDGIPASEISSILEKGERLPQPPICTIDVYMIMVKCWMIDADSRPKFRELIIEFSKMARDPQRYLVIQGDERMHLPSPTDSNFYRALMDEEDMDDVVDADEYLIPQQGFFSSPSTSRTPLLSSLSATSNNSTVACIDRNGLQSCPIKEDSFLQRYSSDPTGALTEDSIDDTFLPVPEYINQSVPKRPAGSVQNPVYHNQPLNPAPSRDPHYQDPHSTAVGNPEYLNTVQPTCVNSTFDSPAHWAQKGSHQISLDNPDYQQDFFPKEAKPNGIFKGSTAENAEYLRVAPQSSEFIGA
T3 sequence (P00533 25-1210 T790M/L858R): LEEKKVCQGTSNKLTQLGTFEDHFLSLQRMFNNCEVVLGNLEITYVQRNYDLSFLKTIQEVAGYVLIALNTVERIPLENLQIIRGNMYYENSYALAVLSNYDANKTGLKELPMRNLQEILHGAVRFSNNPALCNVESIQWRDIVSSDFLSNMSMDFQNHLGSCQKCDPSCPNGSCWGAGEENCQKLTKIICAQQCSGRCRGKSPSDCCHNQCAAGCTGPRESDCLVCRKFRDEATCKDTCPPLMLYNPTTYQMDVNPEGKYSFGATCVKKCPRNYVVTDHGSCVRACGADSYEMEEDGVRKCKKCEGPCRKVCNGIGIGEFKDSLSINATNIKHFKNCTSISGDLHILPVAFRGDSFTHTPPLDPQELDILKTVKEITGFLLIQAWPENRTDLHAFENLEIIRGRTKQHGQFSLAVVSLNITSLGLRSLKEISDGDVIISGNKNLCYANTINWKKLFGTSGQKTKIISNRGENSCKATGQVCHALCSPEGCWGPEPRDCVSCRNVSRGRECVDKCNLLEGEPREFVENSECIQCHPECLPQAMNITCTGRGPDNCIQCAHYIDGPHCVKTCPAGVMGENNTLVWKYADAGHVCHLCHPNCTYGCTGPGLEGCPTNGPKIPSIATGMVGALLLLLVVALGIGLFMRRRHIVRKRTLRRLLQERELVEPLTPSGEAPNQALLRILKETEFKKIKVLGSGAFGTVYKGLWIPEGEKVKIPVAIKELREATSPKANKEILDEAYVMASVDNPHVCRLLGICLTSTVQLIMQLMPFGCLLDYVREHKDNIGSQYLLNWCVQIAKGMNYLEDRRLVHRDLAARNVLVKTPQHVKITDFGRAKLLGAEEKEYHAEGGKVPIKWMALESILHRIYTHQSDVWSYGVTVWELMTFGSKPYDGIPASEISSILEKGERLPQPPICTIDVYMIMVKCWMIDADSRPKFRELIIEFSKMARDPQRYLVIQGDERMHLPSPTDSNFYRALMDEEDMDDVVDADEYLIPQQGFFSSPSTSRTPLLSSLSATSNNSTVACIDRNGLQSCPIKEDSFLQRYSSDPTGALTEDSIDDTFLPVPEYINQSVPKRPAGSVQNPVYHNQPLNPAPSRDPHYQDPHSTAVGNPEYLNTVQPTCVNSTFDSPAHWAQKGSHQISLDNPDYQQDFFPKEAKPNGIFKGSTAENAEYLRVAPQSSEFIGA
T5 sequence (P00533 with tags, fused parts or gaps DEL746-750/T790M limits assumed): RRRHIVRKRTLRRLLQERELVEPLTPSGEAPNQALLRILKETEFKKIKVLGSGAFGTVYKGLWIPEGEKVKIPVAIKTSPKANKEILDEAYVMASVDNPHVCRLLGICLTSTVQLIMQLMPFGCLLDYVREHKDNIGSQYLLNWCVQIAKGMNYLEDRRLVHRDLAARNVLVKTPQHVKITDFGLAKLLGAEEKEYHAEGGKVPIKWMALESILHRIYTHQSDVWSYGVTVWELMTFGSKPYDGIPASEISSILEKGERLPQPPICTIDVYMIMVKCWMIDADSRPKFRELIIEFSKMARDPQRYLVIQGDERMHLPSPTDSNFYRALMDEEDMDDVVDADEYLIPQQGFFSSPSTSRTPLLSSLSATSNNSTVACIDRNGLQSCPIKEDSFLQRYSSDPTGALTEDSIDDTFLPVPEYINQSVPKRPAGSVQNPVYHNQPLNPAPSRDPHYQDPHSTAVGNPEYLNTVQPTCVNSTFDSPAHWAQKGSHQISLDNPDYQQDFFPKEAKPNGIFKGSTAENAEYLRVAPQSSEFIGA
T7 sequence (P00533 with tags, fused parts or gaps DEL746-750/T790M/C797S limits assumed): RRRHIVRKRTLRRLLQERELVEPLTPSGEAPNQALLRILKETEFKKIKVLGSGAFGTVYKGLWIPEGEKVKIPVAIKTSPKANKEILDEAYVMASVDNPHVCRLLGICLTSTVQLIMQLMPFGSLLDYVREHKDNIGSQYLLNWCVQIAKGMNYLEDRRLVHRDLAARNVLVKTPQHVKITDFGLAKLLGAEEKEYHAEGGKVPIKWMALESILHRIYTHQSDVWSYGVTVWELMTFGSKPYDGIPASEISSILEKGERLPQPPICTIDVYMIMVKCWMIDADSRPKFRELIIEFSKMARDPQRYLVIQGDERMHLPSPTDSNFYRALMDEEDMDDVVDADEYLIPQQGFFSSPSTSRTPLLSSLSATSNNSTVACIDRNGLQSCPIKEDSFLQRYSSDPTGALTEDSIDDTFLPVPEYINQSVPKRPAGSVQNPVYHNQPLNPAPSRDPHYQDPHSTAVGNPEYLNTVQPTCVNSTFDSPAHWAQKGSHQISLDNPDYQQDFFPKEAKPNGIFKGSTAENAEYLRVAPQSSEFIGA

| Compound | IC50 (EGFR wild type) | IC50 (EGFR L858R) | IC50 (EGFR L858R/T790M) | IC50 (EGFR Exon19Del) | IC50 (EGFR Exon19Del/T790M) | IC50 (EGFR[T790M/C797S/L858R]) | IC50 [1] | IC50 (EGFR (d746-750 C797S)) | IC50 (EGFR (C797S L858R)) | also measured |
| --- | --- | --- | --- | --- | --- | --- | --- | --- | --- | --- |
| Cc1cc2cc(n1)-c1cnn(C)c1OCCN1CCOCC(C1)n1c(nc3ccccc31)NC2=O (single isomer, unassigned) [Example B7A, 15,21-dimethyl-23,29-dioxa-2,9,11,16,20,21,26-heptaazahexacyclo[24.4.1.1^{13,17}.0^{2,10}.0^{3,8}.0^{18,22}]dotriaconta-3,5,7,9,13(32),14,16,18(22),19-nonaen-12-one] | > 5000 nM | > 5000 nM | 2630 nM | 1210 nM | 104 nM | 1650 nM | 62 nM | 611 nM | > 5000 nM | GI50 ([2]; Mus musculus, BaF3, 72 h, BaF3 cells, EGFR DEL19 - C797S, read-out: GI50 DEL19 - C797S/BaF3): 228 nM; GI50 ([2]; Mus musculus, BaF3, 72 h, BaF3 cells, EGFR DEL19 - T790-C797S, read-out: GI50 DEL19 - T790-C797S/BaF3): 186 nM; GI50 ([2]; Mus musculus, BaF3, 72 h, BaF3 cells, EGFR L858R - C797S, read-out: GI50 L858R - C797S/BaF3): 189 nM; GI50 ([2]; Mus musculus, BaF3, 72 h, BaF3 cells, EGFR L858R - T790-C797S, read-out: GI50 L858R - T790-C797S/BaF3): 295 nM; GI50 ([2]; Mus musculus, BaF3, 72 h, BaF3 cells, EGFR L858R - T790M, read-out: GI50 L858R - T790M/BaF3): 383 nM; GI50 ([2]; Mus musculus, BaF3, 72 h, BaF3 cells, EGFR L858R, read-out: GI50 L858R/BaF3): 934 nM; GI50 ([2]; Mus musculus, BaF3, 72 h, EGFR DEL19 - T790M, read-out: GI50 DEL19 - T790M): 265 nM; GI50 (PC-9; Homo sapiens, PC-9, 72 h): 427 nM |
| Cc1cc2cc(n1)-c1cnn(C)c1OCCN1CC3CCC(C3)(C1)n1c(nc3ccc(N4CCC(N5CCOCC5)C4)cc31)NC2=O (single isomer, unassigned) [Example B44A2] | > 5000 nM | > 5000 nM | > 5000 nM | > 5000 nM | > 5000 nM | > 5000 nM | > 5000 nM | > 5000 nM | > 5000 nM | GI50 ([2]; BaF3 cells, EGFR DEL19 - C797S, read-out: GI50 DEL19 - C797S/BaF3): 873 nM; GI50 ([2]; BaF3 cells, EGFR DEL19 - T790-C797S, read-out: GI50 DEL19 - T790-C797S/BaF3): 1290 nM; GI50 ([2]; BaF3 cells, EGFR L858R - C797S, read-out: GI50 L858R - C797S/BaF3): 3820 nM; GI50 ([2]; BaF3 cells, EGFR L858R - T790-C797S, read-out: GI50 L858R - T790-C797S/BaF3): 343 nM; GI50 ([2]; BaF3 cells, EGFR L858R - T790M, read-out: GI50 L858R - T790M/BaF3): 1080 nM; GI50 ([2]; BaF3 cells, EGFR L858R, read-out: GI50 L858R/BaF3): 9400 nM; GI50 ([2]; EGFR DEL19 - T790M, read-out: GI50 DEL19 - T790M): 3760 nM; GI50 (PC-9): 3560 nM |
